{"source": "patent US11208412B2", "about": "(DAEGU-GYEONGBUK MEDICAL INNOVATION FOUNDATION, priority 2017, dated 2021)", "assay_in_all_cases": "Kinase selectivity, DiscoverX scanMAX Kinase assay panel (% control)", "type_in_all_cases": "binding", "key": {"[1]": {"molecular_target": "T1, kinases of the scanMAX Kinase assay panel (Homo sapiens, UniProt Q96PN8)", "T1 construct": "purchased DiscoverX Co. (contract measurement) scanMAX Kinase assay panel", "T1 sequence (Q96PN8 1-268)": "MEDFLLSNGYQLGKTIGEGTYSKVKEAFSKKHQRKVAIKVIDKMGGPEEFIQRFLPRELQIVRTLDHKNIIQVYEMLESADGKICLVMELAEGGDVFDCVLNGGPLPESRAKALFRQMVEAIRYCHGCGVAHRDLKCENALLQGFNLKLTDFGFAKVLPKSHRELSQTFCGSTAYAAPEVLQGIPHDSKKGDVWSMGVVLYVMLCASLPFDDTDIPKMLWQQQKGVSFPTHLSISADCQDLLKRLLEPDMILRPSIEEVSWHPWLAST", "settings": "kinase TSSK3; 1 uM in DMSO", "in_short": "(§1)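 Read-out is % control, normalised so a positive-control compound sits at 0% and DMSO at 100%: (test − positive)/(negative − positive)×100. Each kinase received the compound at 1 uM in DMSO. A value below 35% counts as activity.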"}, "[2]": {"molecular_target": "T2, kinases of the scanMAX Kinase assay panel (Homo sapiens, UniProt Q07912)", "T2 construct": "purchased DiscoverX Co. (contract measurement) scanMAX Kinase assay panel", "settings": "kinase TNK2; 1 uM in DMSO", "in_short": "as §1"}, "[3]": {"molecular_target": "T3, kinases of the scanMAX Kinase assay panel (Homo sapiens, UniProt Q9UQM7)", "T3 construct": "purchased DiscoverX Co. (contract measurement) scanMAX Kinase assay panel", "settings": "CAMK2A; 1 uM", "in_short": "as §1"}, "[4]": {"molecular_target": "T4, kinases of the scanMAX Kinase assay panel (Homo sapiens, UniProt Q9BRS2)", "T4 construct": "purchased DiscoverX Co. (contract measurement) scanMAX Kinase assay panel", "T4 sequence (Q9BRS2 1-568)": "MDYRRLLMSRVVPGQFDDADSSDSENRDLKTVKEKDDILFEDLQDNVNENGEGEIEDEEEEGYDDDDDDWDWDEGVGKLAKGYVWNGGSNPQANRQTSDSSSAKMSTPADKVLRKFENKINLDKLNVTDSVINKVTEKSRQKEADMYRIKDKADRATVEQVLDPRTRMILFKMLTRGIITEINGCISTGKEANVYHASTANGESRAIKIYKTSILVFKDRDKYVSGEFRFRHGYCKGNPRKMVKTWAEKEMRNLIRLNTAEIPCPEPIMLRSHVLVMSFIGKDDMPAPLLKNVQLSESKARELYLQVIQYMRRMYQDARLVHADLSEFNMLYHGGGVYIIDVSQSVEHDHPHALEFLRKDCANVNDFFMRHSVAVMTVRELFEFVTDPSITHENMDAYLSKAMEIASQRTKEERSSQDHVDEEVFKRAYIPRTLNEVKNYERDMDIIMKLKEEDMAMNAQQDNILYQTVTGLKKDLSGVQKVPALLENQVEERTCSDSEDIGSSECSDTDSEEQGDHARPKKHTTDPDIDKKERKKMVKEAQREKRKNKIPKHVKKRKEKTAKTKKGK", "settings": "kinase RIOK1; 1 uM in DMSO", "in_short": "as §1"}, "[5]": {"molecular_target": "T5, kinases of the scanMAX Kinase assay panel (Homo sapiens, UniProt P00519, M351T)", "T5 construct": "purchased DiscoverX Co. (contract measurement) scanMAX Kinase assay panel", "settings": "ABL1(M351T)-phosphorylated; 1 uM", "in_short": "as §1"}, "[6]": {"molecular_target": "T6, kinases of the scanMAX Kinase assay panel (Homo sapiens, UniProt P23443)", "T6 construct": "purchased DiscoverX Co. (contract measurement) scanMAX Kinase assay panel", "settings": "kinase S6K1; 1 uM in DMSO", "in_short": "as §1"}, "[7]": {"molecular_target": "T7, kinases of the scanMAX Kinase assay panel (Homo sapiens, UniProt P42345)", "T7 construct": "purchased DiscoverX Co. (contract measurement) scanMAX Kinase assay panel", "settings": "MTOR; 1 uM", "in_short": "as §1"}, "[8]": {"molecular_target": "T8, kinases of the scanMAX Kinase assay panel (Homo sapiens, UniProt P42336, I800L)", "T8 construct": "purchased DiscoverX Co. (contract measurement) scanMAX Kinase assay panel", "T8 sequence (P42336 whole entry I800L)": "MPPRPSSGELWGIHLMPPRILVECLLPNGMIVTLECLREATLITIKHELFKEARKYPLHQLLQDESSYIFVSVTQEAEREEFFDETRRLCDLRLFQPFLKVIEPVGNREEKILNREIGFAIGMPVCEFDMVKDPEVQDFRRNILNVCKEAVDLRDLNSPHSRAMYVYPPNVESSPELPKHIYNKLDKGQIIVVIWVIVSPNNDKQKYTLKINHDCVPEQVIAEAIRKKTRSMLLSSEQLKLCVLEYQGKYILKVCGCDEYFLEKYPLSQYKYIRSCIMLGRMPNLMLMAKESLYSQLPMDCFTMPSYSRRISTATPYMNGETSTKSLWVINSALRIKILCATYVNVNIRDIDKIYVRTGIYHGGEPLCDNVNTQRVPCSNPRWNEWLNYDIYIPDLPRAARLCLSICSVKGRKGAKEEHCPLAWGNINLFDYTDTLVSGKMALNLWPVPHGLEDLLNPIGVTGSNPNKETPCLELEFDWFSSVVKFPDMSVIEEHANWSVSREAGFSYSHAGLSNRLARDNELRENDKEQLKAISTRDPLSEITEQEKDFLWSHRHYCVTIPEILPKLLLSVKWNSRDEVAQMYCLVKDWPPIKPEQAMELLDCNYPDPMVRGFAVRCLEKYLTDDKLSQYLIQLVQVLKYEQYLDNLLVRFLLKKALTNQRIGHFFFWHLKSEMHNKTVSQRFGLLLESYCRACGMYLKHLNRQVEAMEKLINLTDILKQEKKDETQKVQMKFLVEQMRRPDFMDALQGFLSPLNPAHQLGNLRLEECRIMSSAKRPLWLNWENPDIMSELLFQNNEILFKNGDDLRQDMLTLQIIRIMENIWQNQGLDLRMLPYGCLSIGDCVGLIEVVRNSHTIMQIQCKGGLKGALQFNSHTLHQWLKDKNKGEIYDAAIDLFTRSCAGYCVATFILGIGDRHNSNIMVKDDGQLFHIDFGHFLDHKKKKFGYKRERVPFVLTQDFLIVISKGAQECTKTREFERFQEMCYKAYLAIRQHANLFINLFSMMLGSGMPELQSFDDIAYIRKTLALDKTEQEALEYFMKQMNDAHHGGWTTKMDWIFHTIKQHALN", "settings": "PIK3CA(I800L); 1 uM", "in_short": "as §1"}, "[9]": {"molecular_target": "T9, kinases of the scanMAX Kinase assay panel (Homo sapiens, UniProt O60331)", "T9 construct": "purchased DiscoverX Co. (contract measurement) scanMAX Kinase assay panel", "T9 sequence (O60331 whole entry)": "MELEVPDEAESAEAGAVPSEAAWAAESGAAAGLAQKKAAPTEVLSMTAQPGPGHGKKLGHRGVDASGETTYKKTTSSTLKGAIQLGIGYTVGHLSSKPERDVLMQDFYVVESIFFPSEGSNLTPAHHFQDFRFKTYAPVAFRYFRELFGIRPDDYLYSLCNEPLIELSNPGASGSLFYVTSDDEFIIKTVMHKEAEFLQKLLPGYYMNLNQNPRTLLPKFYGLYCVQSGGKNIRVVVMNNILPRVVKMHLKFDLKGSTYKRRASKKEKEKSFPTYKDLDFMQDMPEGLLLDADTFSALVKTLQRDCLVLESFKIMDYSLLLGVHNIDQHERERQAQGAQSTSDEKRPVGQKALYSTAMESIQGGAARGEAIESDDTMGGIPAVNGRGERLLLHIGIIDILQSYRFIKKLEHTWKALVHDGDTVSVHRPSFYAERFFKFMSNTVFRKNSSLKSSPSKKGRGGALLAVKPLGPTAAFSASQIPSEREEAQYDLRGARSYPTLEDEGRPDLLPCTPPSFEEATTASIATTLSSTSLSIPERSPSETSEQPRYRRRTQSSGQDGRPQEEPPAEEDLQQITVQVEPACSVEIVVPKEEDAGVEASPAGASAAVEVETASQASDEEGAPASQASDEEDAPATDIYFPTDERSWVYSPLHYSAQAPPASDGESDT", "settings": "PIP5K1C; 1 uM", "in_short": "as §1"}, "[10]": {"molecular_target": "T10, kinases of the scanMAX Kinase assay panel (Homo sapiens, UniProt O14920)", "T10 construct": "purchased DiscoverX Co. (contract measurement) scanMAX Kinase assay panel", "T10 sequence (O14920 1-756)": "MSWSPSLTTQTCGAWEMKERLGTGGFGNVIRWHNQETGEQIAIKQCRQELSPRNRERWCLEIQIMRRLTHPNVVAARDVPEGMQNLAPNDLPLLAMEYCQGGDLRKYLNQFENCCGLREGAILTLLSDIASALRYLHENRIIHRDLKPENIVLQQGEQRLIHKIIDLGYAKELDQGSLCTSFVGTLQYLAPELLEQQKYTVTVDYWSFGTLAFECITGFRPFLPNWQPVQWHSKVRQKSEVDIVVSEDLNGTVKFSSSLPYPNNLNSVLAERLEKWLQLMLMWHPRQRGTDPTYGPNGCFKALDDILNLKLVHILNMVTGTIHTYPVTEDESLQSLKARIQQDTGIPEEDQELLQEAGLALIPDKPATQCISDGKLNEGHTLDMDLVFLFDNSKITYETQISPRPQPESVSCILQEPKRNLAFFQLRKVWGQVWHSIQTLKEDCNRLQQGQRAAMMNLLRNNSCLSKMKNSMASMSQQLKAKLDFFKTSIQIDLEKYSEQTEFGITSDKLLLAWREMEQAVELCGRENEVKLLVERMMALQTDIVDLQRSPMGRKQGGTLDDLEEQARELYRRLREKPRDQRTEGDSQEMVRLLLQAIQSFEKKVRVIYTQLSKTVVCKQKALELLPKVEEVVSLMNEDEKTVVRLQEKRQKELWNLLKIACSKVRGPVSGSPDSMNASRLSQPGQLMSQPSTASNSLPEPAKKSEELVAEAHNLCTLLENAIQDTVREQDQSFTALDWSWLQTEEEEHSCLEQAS", "settings": "IKK-beta; 1 uM", "in_short": "as §1"}}}
{"smiles": "CNc1nc(Nc2ccc(C(=O)N3CCOCC3)cc2OC)nc2[nH]cc(C#N)c12", "note": "[Example 1, 2-((2-methoxy-4-(morpholine-4-carbonyl)phenyl)amino)-4-(methylamino)-7H-pyrrolo[2,3-d]pyrimidine-5-carbonitrile]", "values": [{"measurement": "remaining binding at 1 µM", "setting": "[1]", "value": 74, "unit": "%"}, {"measurement": "remaining binding at 1 µM", "setting": "[2]", "value": 82, "unit": "%"}, {"measurement": "remaining binding at 1 µM", "setting": "[3]", "value": 60, "unit": "%"}, {"measurement": "remaining binding at 1 µM", "setting": "[4]", "value": 100, "unit": "%"}, {"measurement": "remaining binding at 1 µM", "setting": "[5]", "value": 62, "unit": "%"}, {"measurement": "remaining binding at 1 µM", "setting": "[6]", "value": 70, "unit": "%"}, {"measurement": "remaining binding at 1 µM", "setting": "[7]", "value": 100, "unit": "%"}, {"measurement": "remaining binding at 1 µM", "setting": "[8]", "value": 100, "unit": "%"}, {"measurement": "remaining binding at 1 µM", "setting": "[9]", "value": 1, "unit": "%"}, {"measurement": "remaining binding at 1 µM", "setting": "[10]", "value": 75, "unit": "%"}]}
{"smiles": "CC1(Nc2nc(Nc3cnn([C@H]4CCN(C5COC5)C[C@@H]4F)c3Cl)nc3[nH]cc(C#N)c23)CC1", "note": "[Example 52, 2-((5-chloro-1-((3S,4S)-3-fluoro-1-(oxetane-3-yl)piperidine-4-yl)-1H-pyrazole-4-yl)amino)((1-methylcyclopropyl)amino)-7H-pyrrolo[2,3-d]pyrimidine-5-carbonitrile]", "values": [{"measurement": "remaining binding at 1 µM", "setting": "[1]", "value": 72, "unit": "%"}, {"measurement": "remaining binding at 1 µM", "setting": "[2]", "value": 0.9, "unit": "%"}, {"measurement": "remaining binding at 1 µM", "setting": "[3]", "value": 28, "unit": "%"}, {"measurement": "remaining binding at 1 µM", "setting": "[4]", "value": 0.7, "unit": "%"}, {"measurement": "remaining binding at 1 µM", "setting": "[5]", "value": 2.6, "unit": "%"}, {"measurement": "remaining binding at 1 µM", "setting": "[6]", "value": 52, "unit": "%"}, {"measurement": "remaining binding at 1 µM", "setting": "[7]", "value": 66, "unit": "%"}, {"measurement": "remaining binding at 1 µM", "setting": "[8]", "value": 0.1, "unit": "%"}, {"measurement": "remaining binding at 1 µM", "setting": "[9]", "value": 0, "unit": "%"}, {"measurement": "remaining binding at 1 µM", "setting": "[10]", "value": 9.7, "unit": "%"}]}
{"smiles": "CCNc1nc(Nc2ccc(C(=O)N3CCC(N4CCOCC4)CC3)cc2OC)nc2[nH]cc(C(F)(F)F)c12", "note": "[Example 104, (4-((4-(ethylamino)-5-(trifluoromethyl)-7H-pyrrolo[2,3-d]pyrimidine-2-yl)amino)-3-methoxyphenyl)(4-morpholinopiperidine-1-yl)methanone]", "values": [{"measurement": "remaining binding at 1 µM", "setting": "[1]", "value": 100, "unit": "%"}, {"measurement": "remaining binding at 1 µM", "setting": "[2]", "value": 31, "unit": "%"}, {"measurement": "remaining binding at 1 µM", "setting": "[3]", "value": 39, "unit": "%"}, {"measurement": "remaining binding at 1 µM", "setting": "[4]", "value": 100, "unit": "%"}, {"measurement": "remaining binding at 1 µM", "setting": "[5]", "value": 100, "unit": "%"}, {"measurement": "remaining binding at 1 µM", "setting": "[6]", "value": 80, "unit": "%"}, {"measurement": "remaining binding at 1 µM", "setting": "[7]", "value": 100, "unit": "%"}, {"measurement": "remaining binding at 1 µM", "setting": "[8]", "value": 72, "unit": "%"}, {"measurement": "remaining binding at 1 µM", "setting": "[9]", "value": 100, "unit": "%"}, {"measurement": "remaining binding at 1 µM", "setting": "[10]", "value": 92, "unit": "%"}]}
